According to US8778935B2 (Centro Nacional de Investigaciones Oncologicas (CNIO), priority 2009, dated 2014):
Where two headings read alike, the source gives them in different places.

Molecular target: T1, PI3K (p110α/p85α) (Homo sapiens, UniProt P42336)
T1 construct: purchased Carna Biosciences 07CBS-0402A
Assay: PI3K Activity Assay (ADP Hunter Plus)
Format: biochemical
Description: The kinase activity was measured by using the commercial ADP Hunter™ Plus assay available from DiscoveRx (#33-016), which is a homogeneous assay to measure the accumulation of ADP, a universal product of kinase activity. […] Reaction was carried out for 1 hour at 25° C. Reagent A and B were sequentially added to the wells and plates were incubated for 30 min at 37° C. […] Values were normalized against the control activity included for each enzyme (i.e., 100% PI3 kinase activity, without compound). These values were plot against the inhibitor concentration and were fit to a sigmoid dose-response curve by using the Graphad software.

[1] = PI3Kα activity, quantitative results, read-out: PI3Kα IC50
[2] = quantitative results, read-out: PI3Kα IC50
[3] = semi-quantitative results, read-out: PI3Kα IC50 (semi-quantitative class)
[4] = quantitative results of Table 4, read-out: PI3Kα IC50

T1 sequence (P42336 whole entry): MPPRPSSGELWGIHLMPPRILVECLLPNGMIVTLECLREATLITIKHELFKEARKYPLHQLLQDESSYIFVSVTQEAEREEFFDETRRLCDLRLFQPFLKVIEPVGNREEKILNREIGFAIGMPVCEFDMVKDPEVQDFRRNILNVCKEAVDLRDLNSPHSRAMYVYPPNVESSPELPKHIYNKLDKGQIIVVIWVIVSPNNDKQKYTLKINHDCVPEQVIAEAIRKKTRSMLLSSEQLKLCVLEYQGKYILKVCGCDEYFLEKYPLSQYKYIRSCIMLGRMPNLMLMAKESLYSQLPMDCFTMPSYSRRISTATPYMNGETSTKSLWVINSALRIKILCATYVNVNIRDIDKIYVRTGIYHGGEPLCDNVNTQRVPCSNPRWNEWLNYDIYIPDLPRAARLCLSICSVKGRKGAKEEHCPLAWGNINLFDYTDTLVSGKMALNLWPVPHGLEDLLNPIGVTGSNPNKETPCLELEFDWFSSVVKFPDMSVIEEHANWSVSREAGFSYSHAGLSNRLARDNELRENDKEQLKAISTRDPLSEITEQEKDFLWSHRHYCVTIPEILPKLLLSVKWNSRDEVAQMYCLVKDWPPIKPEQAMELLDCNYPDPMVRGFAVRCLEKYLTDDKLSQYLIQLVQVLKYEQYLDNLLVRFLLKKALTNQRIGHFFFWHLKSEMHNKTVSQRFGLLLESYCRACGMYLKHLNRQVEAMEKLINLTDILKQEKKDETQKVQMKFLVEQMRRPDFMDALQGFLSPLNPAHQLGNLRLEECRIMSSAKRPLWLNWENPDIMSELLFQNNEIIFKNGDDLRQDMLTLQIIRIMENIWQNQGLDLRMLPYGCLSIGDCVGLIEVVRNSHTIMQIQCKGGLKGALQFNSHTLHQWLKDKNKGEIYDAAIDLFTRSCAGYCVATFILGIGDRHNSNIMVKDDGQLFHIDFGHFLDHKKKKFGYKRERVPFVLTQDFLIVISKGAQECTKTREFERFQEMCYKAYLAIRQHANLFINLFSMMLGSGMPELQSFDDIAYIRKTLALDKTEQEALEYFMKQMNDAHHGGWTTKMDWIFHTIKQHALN
T1 sequence (P27986 whole entry partner): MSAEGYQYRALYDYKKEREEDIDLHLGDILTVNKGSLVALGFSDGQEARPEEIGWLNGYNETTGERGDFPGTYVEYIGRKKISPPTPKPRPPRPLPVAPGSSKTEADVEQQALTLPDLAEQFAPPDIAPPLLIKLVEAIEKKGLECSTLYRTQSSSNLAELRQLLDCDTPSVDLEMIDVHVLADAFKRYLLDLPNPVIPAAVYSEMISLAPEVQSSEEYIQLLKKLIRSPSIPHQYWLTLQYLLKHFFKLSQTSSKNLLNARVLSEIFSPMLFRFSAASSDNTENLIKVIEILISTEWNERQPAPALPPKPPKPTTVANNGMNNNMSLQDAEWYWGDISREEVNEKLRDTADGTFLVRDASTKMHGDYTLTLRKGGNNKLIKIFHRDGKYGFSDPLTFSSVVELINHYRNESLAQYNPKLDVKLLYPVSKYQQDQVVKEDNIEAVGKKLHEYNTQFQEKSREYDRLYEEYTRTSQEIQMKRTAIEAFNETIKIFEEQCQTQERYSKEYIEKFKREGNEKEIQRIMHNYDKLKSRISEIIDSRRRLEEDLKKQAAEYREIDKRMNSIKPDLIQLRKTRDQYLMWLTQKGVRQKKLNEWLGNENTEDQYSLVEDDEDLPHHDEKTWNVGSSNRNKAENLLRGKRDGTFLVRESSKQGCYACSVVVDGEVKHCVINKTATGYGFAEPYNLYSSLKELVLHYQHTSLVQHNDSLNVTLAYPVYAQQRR

Row | SMILES | IC50 [2] | IC50 [4] | further results
1 | CCOC(=O)N1CCC(NC(=O)c2cn3cc(-c4cccc5[nH]ncc45)nc(N4CCOCC4)c3n2)CC1 [2-182] |  |  | IC50 [1]: 245 nM
2 | Cc1nc2c(N3CCOCC3)nc(-c3cccc4[nH]ncc34)cn2c1C1=CCNCC1 [2-44, 3-(1,2,3,6-tetrahydropyridin-4-yl)-6-(1H-indazol-4-yl)-2-methyl-8-morpholino-imidazo[1,2-a]pyrazine] | 731 nM |  | IC50 [3]: 100 to 1000 nM
3 | CS(=O)(=O)N1CCN(Cc2cn3cc(-c4ccc(C(N)=O)cc4)nc(N4CCOCC4)c3n2)CC1 [2-68] | 11000 nM |  | 
4 | Oc1cccc(-c2cn3cc(CN4CCOCC4)nc3c(N3CCOCC3)n2)c1 [2-09, 3-(8-morpholino-2-(morpholinomethyl)imidazo[1,2-a]pyrazin-6-yl)phenol] | 444 nM |  | IC50 [3]: 100 to 1000 nM
5 | CS(=O)(=O)N1CCN(Cc2cn3cc(-c4ccc(N)cc4)nc(N4CCOCC4)c3n2)CC1 [2-89] |  | 33000 nM | 
6 | CN(C)CC(=O)N1CCN(Cc2cn3cc(-c4cnc(N)nc4)nc(N4CCOCC4)c3n2)CC1 [2-230] |  |  | IC50 [1]: 34 nM
7 | C[C@@H]1CN(C(=O)OC(C)(C)C)C[C@H](C)N1Cc1cn2cc(-c3cnc(N)nc3)nc(N3CCOCC3)c2n1 [2-218] |  |  | IC50 [1]: 28 nM
8 | Cc1nc(N)ncc1-c1cn2cc(CN3CCN(S(C)(=O)=O)CC3)nc2c(N2CCOCC2)n1 [2-200] |  |  | IC50 [1]: 32 nM
9 | CS(=O)(=O)N1CCN(Cc2cn3c(Cl)c(-c4cccc5[nH]ncc45)nc(N4CCOCC4)c3n2)CC1 [2-60, 5-chloro-6-(1H-indazol-4-yl)-8-morpholino-2-((4-sulfonylmethylpiperazin-1-yl)-methyl)imidazo[1,2-a]pyrazine] |  |  | IC50 [3]: 100 to 1000 nM
10 | O=Cc1cn2cc(-c3cccc(O)c3)nc(N3CCOCC3)c2n1 [2-03, 6-(3-hydroxyphenyl)-8-morpholinoimidazo[1,2-a]pyrazine-2-carbaldehyde] | 10000 nM |  | 
11 | Nc1ncc(-c2cn3cc(CN4CCC(O)CC4)nc3c(N3CCOCC3)n2)cn1 [2-229] |  |  | IC50 [1]: 114 nM
12 | CS(=O)(=O)N1CCN(c2cnc3c(N4CCOCC4)nc(-c4cccc5[nH]ncc45)cn23)CC1 [2-41, 6-(1H-indazol-4-yl)-3-(4-sulfonylmethylpiperazin-1-yl)-8-morpholinoimidazo[1,2-a]pyrazine] |  |  | IC50 [3]: 100 to 1000 nM
13 | O=C1CN(Cc2cn3cc(-c4cccc(O)c4)nc(N4CCOCC4)c3n2)CCN1 [2-08, 4-((6-(3-hydroxyphenyl)-8-morpholinoimidazo[1,2-a]pyrazin-2-yl)methyl)piperazin-2-one] | 540 nM |  | IC50 [3]: 100 to 1000 nM
14 | CC(C)(C)OC(=O)N1CCN(Cc2cn3cc(-c4cccc(O)c4)nc(N4CCOCC4)c3n2)CC1 [2-05, tert-butyl 4-((6-(3-hydroxyphenyl)-8-morpholinoimidazo[1,2-a]pyrazin-2-yl)methyl)-piperazine-1-carboxylate] | 476 nM |  | 
15 | COC(=O)C1COCCN1c1nc(-c2cnc(N)nc2)cn2cc(C)nc12 (stereo not drawn) [2-227] |  |  | IC50 [1]: 6090 nM
16 | CS(=O)(=O)N1CCN(Cc2cn3cc(-c4cnc(N)c(C(F)(F)F)c4)nc(N4CCOCC4)c3n2)CC1 [2-83] | 210 nM |  | 
17 | Cc1cn2cc(-c3cccc4[nH]ncc34)nc(N3CCOCC3)c2n1 [2-24, 6-(1H-indazol-4-yl)-2-methyl-8-morpholinoimidazo[1,2-a]pyrazine] | 2600 nM |  | IC50 [3]: > 1000 nM
18 | CN1CCN(c2cnc3c(N4CCOCC4)nc(-c4cccc(O)c4)cn23)CC1 [2-37, 3-(3-(4-methylpiperazin-1-yl)-8-morpholinoimidazo[1,2-a]pyrazin-6-yl)phenol] |  |  | IC50 [3]: 100 to 1000 nM

Row | SMILES | IC50 [2] | IC50 [4] | further results
19 | CS(=O)(=O)N1CCN(Cc2cn3c(Cl)c(-c4ccc(C#N)nc4)nc(N4CCOCC4)c3n2)CC1 [2-206] |  |  | IC50 [1]: 3700 nM
20 | c1cc(-c2cn3cc(C4CC4)nc3c(N3CCOCC3)n2)c2cn[nH]c2c1 [2-19, 2-cyclopropyl-6-(1H-indazol-4-yl)-8-morpholinoimidazo[1,2-a]pyrazine] | 438 nM |  | 
21 | CC(=O)O[C@H](C)C(=O)N1CCN(Cc2cn3cc(-c4cnc(N)nc4)nc(N4CCOCC4)c3n2)CC1 [2-231] |  |  | IC50 [1]: 85 nM
22 | Cc1cn2cc(-c3cccnc3)nc(N3CCOCC3)c2n1 [2-26, 2-methyl-8-morpholino-6-(pyridin-3-yl)imidazo[1,2-a]pyrazine] | 10000 nM |  | 
23 | CS(=O)(=O)N1CCN(Cc2cn3cc(-c4ccc(C#N)nc4)nc(N4CCOCC4)c3n2)CC1 [2-201] |  |  | IC50 [1]: 3300 nM
24 | Cc1cn2cc(-c3cccc(NS(C)(=O)=O)c3)nc(N3CCOCC3)c2n1 [2-28] | 50000 nM |  | 
25 | CS(=O)(=O)N1CCN(C(=O)c2cn3cc(-c4cccc(O)c4)nc(N4CCOCC4)c3n2)CC1 [2-11, (6-(3-hydroxyphenyl)-8-morpholinoimidazo[1,2-a]pyrazin-2-yl)(4-sulfonylmethyl-piperazin-1-yl)methanone] | 44 nM |  | 
26 | COc1ccncc1-c1cn2cc(CN3CCN(S(C)(=O)=O)CC3)nc2c(N2CCOCC2)n1 [2-204] |  |  | IC50 [1]: 10000 nM
27 | O=C(O)c1cn2cc(-c3cccc(O)c3)nc(N3CCOCC3)c2n1 [2-02, 6-(3-hydroxyphenyl)-8-morpholinoimidazo[1,2-a]pyrazine-2-carboxylic acid] | 19000 nM |  | 
28 | COc1cncc(-c2cn3cc(C)nc3c(N3CCOCC3)n2)c1 [2-27, 6-(5-methoxypyridin-3-yl)-2-methyl-8-morpholinoimidazo[1,2-a]pyrazine] | 3900 nM |  | IC50 [3]: > 1000 nM
29 | Oc1cccc(-c2cn3cc(C4CC4)nc3c(N3CCOCC3)n2)c1 [2-14, 3-(2-cyclopropyl-8-morpholinoimidazo[1,2-a]pyrazin-6-yl)phenol] | 340 nM |  | IC50 [3]: 100 to 1000 nM
30 | Cc1cnc2c(N3CCOCC3)nc(-c3ccc(NC(=O)Nc4cccc(C(=O)O)c4)cc3)cn12 [2-244] |  |  | IC50 [1]: 144 nM
31 | Cc1cn2cc(-c3cccc(O)c3)nc(N3CCOCC3)c2n1 [2-23, 3-(2-methyl-8-morpholinoimidazo[1,2-a]pyrazin-6-yl)phenol] | 96 nM |  | IC50 [3]: < 100 nM
32 | CN1CCN(C(=O)c2cn3cc(-c4cccc5[nH]ncc45)nc(N4CCOCC4)c3n2)CC1 [2-15, (6-(1H-indazol-4-yl)-8-morpholinoimidazo[1,2-a]pyrazin-2-yl)(4-methylpiperazin-1-yl)methanone] | 741 nM |  | IC50 [3]: 100 to 1000 nM
33 | Cc1nc2c(N3CCOCC3)nc(-c3cccc4[nH]ncc34)cn2c1C1CCNCC1 [2-57, 6-(1H-indazol-4-yl)-2-methyl-8-morpholino-3-(piperidin-4-yl)imidazo[1,2-a]-pyrazine] | 144 nM |  | IC50 [3]: 100 to 1000 nM
34 | N#Cc1cn2cc(-c3cccc4[nH]ncc34)nc(N3CCOCC3)c2n1 [2-22, 6-(1H-indazol-4-yl)-8-morpholinoimidazo[1,2-a]pyrazine-2-carbonitrile] | 618 nM |  | IC50 [3]: 100 to 1000 nM
35 | OCc1cn2cc(-c3cccc(O)c3)nc(N3CCOCC3)c2n1 [2-04, 3-(2-(hydroxymethyl)-8-morpholinoimidazo[1,2-a]pyrazin-6-yl)phenol] | 639 nM |  | IC50 [3]: 100 to 1000 nM
36 | CS(=O)(=O)N1CCN(Cc2nc3c(N4CCOCC4)nc(-c4cccc5[nH]ncc45)cn3c2Br)CC1 [2-183] |  |  | IC50 [1]: 170 nM

Second part, led by results:

Row | IC50 [2] | IC50 [4] | SMILES | further results
37 |  | 26000 nM | Cc1cn2cc(-c3cccc4[nH]ncc34)nc(-c3ccncc3)c2n1 [2-168] | 
38 |  | 110 nM | CS(=O)(=O)N1CCC2(CC1)CN(Cc1cn3cc(-c4cnc(N)nc4)nc(N4CCOCC4)c3n1)C2 [2-169] | 
39 |  | 4500 nM | CC(C)(C)OC(=O)N1CCC2(CCN(Cc3cn4cc(-c5cccc6[nH]ncc56)nc(N5CCOCC5)c4n3)CC2)C1 [2-97] | 
40 |  | 813 nM | c1cc(-c2cn3cc(CN4CCC5(CCNCC5)CC4)nc3c(N3CCOCC3)n2)c2cn[nH]c2c1 [2-111] | 
41 |  | 851 nM | c1cc(-c2cn3cc(CN4CC5CNCC5C4)nc3c(N3CCOCC3)n2)c2cn[nH]c2c1 (stereo not drawn) [2-117] | 
42 |  | 2500 nM | CS(=O)(=O)N1CCC2(CCN(Cc3cn4cc(-c5cccc6[nH]ncc56)nc(N5CCOCC5)c4n3)C2)CC1 [2-129] | 
43 |  | 5300 nM | CC(C)(C)OC(=O)N1CCC2(CCN(Cc3cn4cc(-c5cccc6[nH]ncc56)nc(N5CCOCC5)c4n3)C2)CC1 [2-100] | 
44 |  | 65 nM | CN(C)CCNC(=O)c1cn2cc(-c3cccc4[nH]ncc34)nc(N3CCOCC3)c2n1 [2-141] | 
45 |  | 1000 nM | COc1ccc(-c2nc(N3CCOCC3)c3nc(CN4CCN(S(C)(=O)=O)CC4)cn3c2Cl)cn1 [2-109] | 
46 |  | 50000 nM | CS(=O)(=O)N1CCN(Cc2cn3cc(-c4c(F)ccc5[nH]cc(Cl)c45)nc(N4CCOCC4)c3n2)CC1 [2-122] | 
47 |  | 12 nM | CCOC(=O)c1cn2cc(-c3cnc(N)nc3)nc(N3CCOCC3)c2n1 [2-138] | 
48 |  | 34000 nM | NC(=O)c1cn2cc(-c3cccc4[nH]cc(Cl)c34)nc(N3CCOCC3)c2n1 [2-103] | 
49 |  | 14000 nM | O=C1CC2(CCN(Cc3cn4cc(-c5cccc6[nH]ncc56)nc(N5CCOCC5)c4n3)CC2)CN1 [2-131] | 
50 |  | 28000 nM | NC(=O)c1cn2c(Cl)c(-c3c(F)ccc4[nH]cc(Cl)c34)nc(N3CCOCC3)c2n1 [2-106] | 
51 |  | 1400 nM | O=C1NCCC12CCN(Cc1cn3cc(-c4cccc5[nH]ncc45)nc(N4CCOCC4)c3n1)CC2 [2-130] | 
52 |  | 1800 nM | Cc1cn2cc(-c3cnc(N)nc3)nc(-c3ccncc3)c2n1 [2-166] | 
53 |  | 2600 nM | COC(=O)Cc1cn2cc(-c3cccc4[nH]ncc34)nc(N3CCOCC3)c2n1 [2-107] | 
54 |  | 6000 nM | CS(=O)(=O)N1CCN(Cc2cn3cc(-c4cn[nH]c4)nc(N4CCOCC4)c3n2)CC1 [2-90] | 
55 |  | 1500 nM | c1cc(-c2cn3cc(CN4CCC5(CCNCC5)C4)nc3c(N3CCOCC3)n2)c2cn[nH]c2c1 [2-118] | 
56 |  | 1300 nM | CS(=O)(=O)N1CCC2(CCN(Cc3cn4cc(-c5cccc6[nH]ncc56)nc(N5CCOCC5)c4n3)CC2)CC1 [2-149] | 
57 |  | 468 nM | Cc1ccncc1-c1cn2cc(CN3CCN(S(C)(=O)=O)CC3)nc2c(N2CCOCC2)n1 [2-152] | 
58 |  | 832 nM | CN(C)CCNC(=O)c1cn2cc(-c3cccnc3)nc(N3CCOCC3)c2n1 [2-147] | 
